Patent US20060223747A1, “Therapeutic agent for soft tissue sarcoma” (Fujisawa Pharmaceutical Co. Ltd., priority 2003, published 2006)

Columns and labels:
[1] = test system: HS-SY-2 synovial sarcoma cell strain (SYT-SSX protein expressing); experiment: MTT cell growth assay, HS-SY-2 synovial sarcoma cell strain; format: cell-based; settings: HS-SY-2 cells; FK228 0.1-100 nM; exposure 24, 48, 96 hr; FIG. 1
Excerpt: (§1) An SYT-SSX protein expressing synovial sarcoma cell line HS-SY-2 (established and kindly provided by Dr. Hiroshi Sonobe, Department of Pathology, National Fukuyama Hospital), YaFuSS (established and kindly provided by Dr. Junya Toguchida, Department of Tissue Regeneration, Institute for Frontier Medical Sciences, Kyoto University) and SYO-1 (established and kindly provided by Dr. Akira Kawai, Department of Orthopedics, Faculty of Medicine, Okayama University (now Department of Orthopedics, National Cancer Center)) were cultured in DMEM (Dulbecco's modified Eagle's medium) containing 10% (v/v) fetal bovine serum (FBS), 100 U/ml penicillin and 100 μg/ml streptomycin at 37° C. under 5% CO2 environment. These cells were plated and cultured for 24 hr, detached with 0.25% (w/v) trypsin and recovered. For cell growth ability, an MTT analysis kit (Colorimetric (MTT) assay for cell survival and proliferation kit of CHEMICON International, Inc.) was used. Each cell strain was plated in a 96 well microtiter plate at 10^3 cell/well, and after culture for 24 hr, exposed to a 0.1% (v/v) dilute ethanol solution of FK228 at a concentration distribution of 0.1 nM, 0.2 nM, 1 nM, 50 nM and 100 nM, and 0.1% (v/v) ethanol (Et-OH 0.1% in FIG. 1) as a control. After exposure for 24 hr, 48 hr and 96 hr, each culture was passed through a 570 nm filter and the absorbance was measured. […]

[2] = test system: YaFuSS synovial sarcoma cell strain (SYT-SSX protein expressing); experiment: MTT cell growth assay, YaFuSS synovial sarcoma cell strain; format: cell-based; settings: YaFuSS cells; FK228 0.1-100 nM; exposure 24, 48, 96 hr; FIG. 2
Excerpt: as §1

[3] = test system: SYO-1 synovial sarcoma cell strain (SYT-SSX protein expressing); experiment: MTT cell growth assay, SYO-1 synovial sarcoma cell strain; format: cell-based; settings: SYO-1 cells; FK228 0.1-100 nM; exposure 24, 48, 96 hr; FIG. 3
Excerpt: as §1

[4] = test system: SYO-1 synovial sarcoma cell strain (SYT-SSX protein expressing); experiment: Tumor volume after subcutaneous implantation of SYO-1 cells in nude mice; format: in vivo, BALB/C/nu/nu nude mice; settings: for antitumor activity in vivo against SYT-SSX protein expressing cells: summary statement
Description: Inbred male (BALB/C/nu/nu) nude mice were supplied by Charles River Japan, Inc. The animals were all fed and handled according to the Animal Test Guideline, Animal Resources Division, Advanced Science Research Center, Okayama University. FK228 was administered after 10 days from subcutaneous implantation of 10^5 cells each of the SYO-1 cell strain. The tumor volume was assumed by measuring two diameters perpendicular to each other using calipers and from the following formula (tumor volume=⅙π [(d1×d2)^3/2] (wherein d1 and d2 are two perpendicular diameters)). The dose was evaluated by intravenously administering a dilute FK228 solution (50 μl, 10% HCO60 which is polyoxyethylene (60) hydrogenated castor oil, diluted with physiological saline) at 0 mg/kg, 1.6 mg/kg or 3.2 mg/kg to 20 animals, and as a control, a 3.2 mg/kg dilute FK228 solution was intravenously injected to 7 animals free of tumor implantation. The administration was performed 3 times every 4 days, the tumor volume was also measured every 4 days, as well as after completion of the administration.

[5] = test system: HTB93 synovial sarcoma cell strain (SW982; not expressing SYT-SSX protein); experiment: MTT cell growth assay (survival rate), HTB93 synovial sarcoma cell strain; format: cell-based; settings: for antitumor activity against synovial sarcoma cell strain not expressing SYT-SSX protein: summary statement, HTB93 (SW982)
Description: An SYT-SSX protein non-expressing synovial sarcoma cell line HTB93 (purchased from ATCC: American Type Culture Collection) was cultured in DMEM (Dulbecco's modified Eagle's medium) containing 10% (v/v) fetal bovine serum (FBS), 100 U/ml penicillin and 100 μg/ml streptomycin at 37° C. under 5% CO2 environment. These cells were plated and cultured for 24 hr, detached with 0.25% (w/v) trypsin and recovered. For cell growth ability, an MTT analysis kit (Colorimetric MTT) assay for cell survival and proliferation kit of CHEMICON International, Inc.) was used. Each cell strain was plated in a 96 well microtiter plate at 2×10^3 cell/well, and after culture for 24 hr, exposed to a 0.1% (v/v) dilute ethanol solution of FK228 at a concentration distribution of 0.001 nM, 0.01 nM, 0.1 nM, 0.5 nM, 1 nM, 5 nM, 10 nM, 50 nM and 100 nM, 0.1% (v/v) ethanol as a control and the medium alone as a blank. After exposure for 24 hr, 48 hr, 72 hr and 96 hr, each culture was passed through a 570 nm filter and the absorbance was measured. All were performed with n=4.
For the results, average values of the FK228 addition sample, control and blank were taken, and using numerical values obtained by subtracting a blank value from the value of the FK228 addition sample or control, a percentage corresponding to the ratio of the numerical value of the FK228 addition sample relative to that of the control was taken as survival rate (%).

[6] = test system: SYT-SSX protein expressing cells (HS-SY-2, YaFuSS, SYO-1); experiment: In vitro antitumor activity against SYT-SSX protein expressing cells (summary statement); format: cell-based
Excerpt: In an attempt to solve the above-mentioned problems, the present inventors have considered that, in synovial sarcoma, formation of the aforementioned complex of SYT-SSX protein, a chromatin remodeling-associated protein and histone deacetylase (HDAC)-associated protein enhances histone deacetylase activity, which in turn has an effect on the canceration, development and/or proliferation, of synovial sarcoma, and have conducted intensive studies of the effect of histone deacetylase inhibition on various synovial sarcoma cell strains (HS-SY-2, YaFuSS, SYO-1) that express SYT-SSX protein. […]

histone deacetylase = settings: reported in JP-B-7-64872; Experimental Cell Research (1998) 241, 126-133; cited from earlier work

SMILES | in vitro antitumor effect [1] | in vitro antitumor effect [2] | in vitro antitumor effect [3] | in vivo antitumor effect (tumor volume) ([4]; SYO-1 subcutaneous implant, i.v. 1.6 or 3.2 mg/kg, 3 times every 4 days, FIG. 4) | antitumor activity in vivo against SYT-SSX protein expressing cells [4] | in vitro antitumor effect (survival rate) ([5]; HTB93 cells, FK228 0.001-100 nM, exposure 24, 48, 72, 96 hr, FIG. 5) | antitumor activity against synovial sarcoma cell strain not expressing SYT-SSX protein [5] | antitumor activity in vitro against SYT-SSX protein expressing cells [6] | histone deacetylase inhibition (histone deacetylase)
C/C=C1\NC(=O)[C@H]2CSSCC/C=C/[C@H](CC(=O)N[C@H](C(C)C)C(=O)N2)OC(=O)[C@H](C(C)C)NC1=O [FK228] | showed an in vitro antitumor effect | showed an in vitro antitumor effect | showed an in vitro antitumor effect | showed an in vivo antitumor effect | potent antiturnor activity | showed an in vitro antitumor effect | potent antitumor activity | potent antiturnor activity | selectively inhibits histone deacetylase
C/C=C1\NC(=O)C2CSSCC/C=C/C(CCNC(C(C)C)C(=O)N2)OC(=O)C(C(C)C)NC1=O (stereo not shown) [compound A] |  |  |  |  |  |  |  |  | selectively inhibits histone deacetylase
CC(/C=C/C(=O)NO)=C\[C@@H](C)C(=O)c1ccc(N(C)C)cc1 [tricostatin A, Trichostatin A, reference compound] |  |  |  |  | potent antiturnor activity |  | potent antitumor activity | potent antiturnor activity | 
